Patent publication US20260176320A1, “MODULATORS OF G-PROTEIN COUPLED RECEPTORS” (priority 2018, published 2026)
Read-outs that look alike come from different tables or passages of the source.

Legend:
[1] = target: GLP-1R (Homo sapiens, UniProt P43220); assay: HitHunter cAMP assay (GLP-1R); type: cell-based; conditions: cAMP; for Emax: read-out: (Emax) GLP-1R
Protocol: (§1) Suspension cells were harvested and resuspended in 1×HBSS (+10 mM HEPES, 625 μM IBMX, 0.2% BSA) according to the following procedure: 5 μL of 2× cell suspension+1× antibody were added to each well, where the optimal cell density was 10,000 cells per well in a low volume 384-well plate. Agonist serial dilutions in a separate 384 well dilution plate in a 22-point series of 2× dilutions of agonist in DMSO were performed as follows. 80 μL of the highest concentration of Agonist/DMSO was added to well No. 1. 40 μL was removed from well No. 1 and added it to well No. 2, followed by gentle mixing. […] This process was repeated until well No. 22. Additional serial dilutions for additional agonists were set up in a similar manner. 50 nL of each 2× agonist serial dilution was added in duplicate to the designated agonist rows of the assay plate using the Labcyte ECHO. Assay plate was incubated for 30 minutes at room temperature. Following agonist incubation, 5 μL of cAMP Antibody Reagent was added to all wells. […] Plates were spun down briefly. Assay plate was incubated for 1 hour at room temperature in the dark for the immunocompetition reaction to occur. […] Plates were spun down briefly. Assay plate was incubated O/N at room temperature in the dark. Samples were read on Tecan i-control plate reader using luminescence mode with 300 ms integration time. Data analysis was performed using GraphPad Prism.

[2] = target: T1, GIP-R (Homo sapiens, UniProt P48546); assay: HitHunter cAMP assay (GIP-R); type: cell-based; conditions: cAMP; for Emax: read-out: (Emax) GIP-R
T1 sequence (P48546 22-466): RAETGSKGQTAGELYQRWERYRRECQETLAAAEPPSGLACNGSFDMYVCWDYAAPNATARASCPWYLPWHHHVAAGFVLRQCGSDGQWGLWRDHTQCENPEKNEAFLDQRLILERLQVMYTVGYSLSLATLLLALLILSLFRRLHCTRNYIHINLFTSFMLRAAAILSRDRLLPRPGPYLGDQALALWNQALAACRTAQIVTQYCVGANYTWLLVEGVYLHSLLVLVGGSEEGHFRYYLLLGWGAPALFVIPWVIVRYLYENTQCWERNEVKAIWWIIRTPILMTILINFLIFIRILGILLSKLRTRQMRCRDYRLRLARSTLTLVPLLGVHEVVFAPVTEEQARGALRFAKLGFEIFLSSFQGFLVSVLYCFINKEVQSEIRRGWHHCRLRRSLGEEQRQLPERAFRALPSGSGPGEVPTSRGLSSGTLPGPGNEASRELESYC
Protocol: as §1

[3] = Table 3, read-out: EC50 GLP-1R/nM
[4] = Table 3A, read-out: EC50 GLP-1R/nM

Sequence of GLP-1R (P43220 24-463): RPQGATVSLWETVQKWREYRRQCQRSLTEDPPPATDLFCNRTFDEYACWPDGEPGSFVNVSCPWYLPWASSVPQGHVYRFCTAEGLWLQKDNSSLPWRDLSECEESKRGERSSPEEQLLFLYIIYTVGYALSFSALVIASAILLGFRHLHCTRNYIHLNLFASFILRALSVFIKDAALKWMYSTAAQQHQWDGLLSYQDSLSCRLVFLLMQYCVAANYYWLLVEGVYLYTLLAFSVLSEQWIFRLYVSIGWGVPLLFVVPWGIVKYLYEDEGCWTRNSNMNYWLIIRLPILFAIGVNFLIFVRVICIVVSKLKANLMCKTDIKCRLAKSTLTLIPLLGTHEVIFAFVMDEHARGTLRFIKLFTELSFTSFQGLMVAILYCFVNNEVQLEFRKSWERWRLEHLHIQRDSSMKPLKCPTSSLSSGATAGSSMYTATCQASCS

Row | Structure (SMILES) | Emax ([1]; Table 3) | EC50 [1, 3] | Emax ([1]; Table 3A) | EC50 [1, 4] | Emax ([2]; Table 3) | EC50 ([2]; Table 3, read-out: EC50 GIP-R/nM) | EC50 ([2]; Table 3A, read-out: EC50 GIP-R/nM) | Emax ([2]; Table 3A) | EC50 ([1]; EC50 GLP-1R/nM, Table 3) | EC50 ([1]; EC50 GLP-1R/nM, Table 3A) | EC50 ([2]; EC50 GIP-R/nM, Table 3) | EC50 ([2]; EC50 GIP-R/nM, Table 3A) | Emax at 1 µM ([2]; read-out: (Emax) GIP-R at 1 μM, Table 3, at 1 μM)
1 | CC[C@H](C)[C@H](NC(=O)[C@H](CO)NC(=O)[C@H](Cc1ccc(O)cc1)NC(=O)[C@H](CC(=O)O)NC(=O)[C@H](CO)NC(=O)[C@@H](NC(=O)[C@H](Cc1ccccc1)NC(=O)[C@@H](NC(=O)CNC(=O)[C@H](CCC(=O)O)NC(=O)C(C)(C)C(=O)O)[C@@H](C)O)[C@@H](C)O)C(=O)N[C@@H](Cc1ccc(O)cc1)C(=O)N[C@@H](CC(C)C)C(=O)N[C@@H](CC(=O)O)C(=O)N[C@@H](CCCCN)C(=O)N[C@@H](CCC(N)=O)C(=O)N[C@@H](C)C(=O)N[C@@H](C)C(=O)NC(C)(C)C(=O)N[C@@H](CCC(=O)O)C(=O)N[C@@H](Cc1ccccc1)C(=O)N[C@H](C(=O)N[C@@H](CC(N)=O)C(=O)N[C@@H](Cc1c[nH]c2ccccc12)C(=O)N[C@@H](CC(C)C)C(=O)N[C@@H](CC(C)C)C(=O)N[C@@H](C)C(=O)NCC(=O)NCC(=O)N1CCC[C@H]1C(=O)N[C@@H](CO)C(=O)N[C@@H](CO)C(=O)NCC(=O)N[C@@H](C)C(=O)N1CCC[C@H]1C(=O)N1CCC[C@H]1C(=O)N1CCC[C@H]1C(=O)N[C@@H](CO)C(=O)N[C@@H](CCCCN)C(N)=O)C(C)C [Compound 131] | 95% | 1 to 10 nM | 95% | 1 to 10 nM | 3.2% | > 1000 nM | > 1000 nM |  |  |  |  |  | 
2 | CCCCCCCCCCCCCCCC(=O)N[C@@H](CCC(=O)NCCCC[C@H](NC(=O)[C@H](CO)NC(=O)[C@@H]1CCCN1C(=O)[C@@H]1CCCN1C(=O)[C@@H]1CCCN1C(=O)[C@H](C)NC(=O)CNC(=O)[C@H](CO)NC(=O)[C@H](CO)NC(=O)[C@@H]1CCCN1C(=O)CNC(=O)CNC(=O)[C@H](C)NC(=O)[C@H](CC(C)C)NC(=O)[C@H](CC(C)C)NC(=O)[C@H](Cc1c[nH]c2ccccc12)NC(=O)[C@H](CC(N)=O)NC(=O)[C@@H](NC(=O)[C@H](Cc1ccccc1)NC(=O)[C@H](CCC(=O)O)NC(=O)C(C)(C)NC(=O)[C@H](C)NC(=O)[C@H](C)NC(=O)[C@H](CCC(N)=O)NC(=O)[C@H](CCCCN)NC(=O)[C@H](CC(=O)O)NC(=O)[C@H](CC(C)C)NC(=O)[C@H](Cc1ccc(O)cc1)NC(=O)[C@@H](NC(=O)[C@H](CO)NC(=O)[C@H](Cc1ccc(O)cc1)NC(=O)[C@H](CC(=O)O)NC(=O)[C@H](CO)NC(=O)[C@@H](NC(=O)[C@H](Cc1ccccc1)NC(=O)[C@@H](NC(=O)CNC(=O)[C@H](CCC(=O)O)NC(=O)CSCC(=O)NCCN1C[C@H](C)CC1=O)[C@@H](C)O)[C@@H](C)O)[C@@H](C)CC)C(C)C)C(N)=O)C(=O)O (single isomer, unassigned) [Compound 28] | 101% |  | 101% |  | 57% |  |  | 57% |  |  |  |  | 
3 | CC[C@H](C)[C@H](NC(=O)[C@H](CO)NC(=O)[C@H](Cc1ccc(O)cc1)NC(=O)[C@H](CC(=O)O)NC(=O)[C@H](CO)NC(=O)[C@@H](NC(=O)[C@H](Cc1ccccc1)NC(=O)[C@@H](NC(=O)CNC(=O)[C@H](CCC(=O)O)NC(=O)CSCC(=O)NCCN1C(=O)[C@@H]2[C@H](C1=O)C2(C)C)[C@@H](C)O)[C@@H](C)O)C(=O)N[C@@H](Cc1ccc(O)cc1)C(=O)N[C@@H](CC(C)C)C(=O)N[C@@H](CC(=O)O)C(=O)N[C@@H](CCCCN)C(=O)N[C@@H](CCC(N)=O)C(=O)N[C@@H](C)C(=O)N[C@@H](C)C(=O)NC(C)(C)C(=O)N[C@@H](CCC(=O)O)C(=O)N[C@@H](Cc1ccccc1)C(=O)N[C@H](C(=O)N[C@@H](CC(N)=O)C(=O)N[C@@H](Cc1c[nH]c2ccccc12)C(=O)N[C@@H](CC(C)C)C(=O)N[C@@H](CC(C)C)C(=O)N[C@@H](C)C(=O)NCC(=O)NCC(=O)N1CCC[C@H]1C(=O)N[C@@H](CO)C(=O)N[C@@H](CO)C(=O)NCC(=O)N[C@@H](C)C(=O)N1CCC[C@H]1C(=O)N1CCC[C@H]1C(=O)N1CCC[C@H]1C(=O)N[C@@H](CO)C(=O)N[C@@H](CCCCN)C(N)=O)C(C)C [Compound 110] | 88% |  | 88% |  | 33% |  |  | 33% | 10 to 100 nM | 10 to 100 nM | 10 to 100 nM | 10 to 100 nM | 
4 | CCCCCCCCCCCCCCCC(=O)N[C@@H](CCC(=O)NCCCC[C@H](NC(=O)[C@H](CO)NC(=O)[C@@H]1CCCN1C(=O)[C@@H]1CCCN1C(=O)[C@@H]1CCCN1C(=O)[C@H](C)NC(=O)CNC(=O)[C@H](CO)NC(=O)[C@H](CO)NC(=O)[C@@H]1CCCN1C(=O)CNC(=O)CNC(=O)[C@H](C)NC(=O)[C@H](CC(C)C)NC(=O)[C@H](CC(C)C)NC(=O)[C@H](Cc1c[nH]c2ccccc12)NC(=O)[C@H](CC(N)=O)NC(=O)[C@@H](NC(=O)[C@H](Cc1ccccc1)NC(=O)[C@H](CCC(=O)O)NC(=O)C(C)(C)NC(=O)[C@H](C)NC(=O)[C@H](C)NC(=O)[C@H](CCC(N)=O)NC(=O)[C@H](CCCCN)NC(=O)[C@H](CC(=O)O)NC(=O)[C@H](CC(C)C)NC(=O)[C@H](Cc1ccc(O)cc1)NC(=O)[C@@H](NC(=O)[C@H](CO)NC(=O)[C@H](Cc1ccc(O)cc1)NC(=O)[C@H](CC(=O)O)NC(=O)[C@H](CO)NC(=O)[C@@H](NC(=O)[C@H](Cc1ccccc1)NC(=O)[C@@H](NC(=O)CNC(=O)[C@H](CCC(=O)O)NC(=O)CSCC(=O)NCCN1C[C@@H](C)CC1=O)[C@@H](C)O)[C@@H](C)O)[C@@H](C)CC)C(C)C)C(N)=O)C(=O)O (single isomer, unassigned) [Compound 64] | 97% |  | 97% |  | 35% |  |  | 35% |  |  |  |  | 
5 | CCCCCCCCCCCCCCCC(=O)N[C@@H](CCC(=O)NCCCC[C@H](NC(=O)[C@H](CO)NC(=O)[C@@H]1CCCN1C(=O)[C@@H]1CCCN1C(=O)[C@@H]1CCCN1C(=O)[C@H](C)NC(=O)CNC(=O)[C@H](CO)NC(=O)[C@H](CO)NC(=O)[C@@H]1CCCN1C(=O)CNC(=O)CNC(=O)[C@H](C)NC(=O)[C@H](CC(C)C)NC(=O)[C@H](CC(C)C)NC(=O)[C@H](Cc1c[nH]c2ccccc12)NC(=O)[C@H](CC(N)=O)NC(=O)[C@@H](NC(=O)[C@H](Cc1ccccc1)NC(=O)[C@H](CCC(=O)O)NC(=O)C(C)(C)NC(=O)[C@H](C)NC(=O)[C@H](C)NC(=O)[C@H](CCC(N)=O)NC(=O)[C@H](CCCCN)NC(=O)[C@H](CC(=O)O)NC(=O)[C@H](CC(C)C)NC(=O)[C@H](Cc1ccc(O)cc1)NC(=O)[C@@H](NC(=O)[C@H](CO)NC(=O)[C@H](Cc1ccc(O)cc1)NC(=O)[C@H](CC(=O)O)NC(=O)[C@H](CO)NC(=O)[C@@H](NC(=O)[C@H](Cc1ccccc1)NC(=O)[C@@H](NC(=O)CNC(=O)[C@H](CCC(=O)O)NC(=O)CSCC(=O)NCCC1CCCC1)[C@@H](C)O)[C@@H](C)O)[C@@H](C)CC)C(C)C)C(N)=O)C(=O)O [Compound 57] | 109% | 0.1 to 1 nM | 109% | 0.1 to 1 nM |  |  |  |  |  |  |  |  | 7%
